Assay results: paper PMC11042424, “Development of a First-in-Class RIPK1 Degrader to Enhance Antitumor Immunity” (Research Square, 2024)

How the values were obtained:
B16F10 cells = test: TNFα-mediated apoptosis in B16F10 cells; assay type: cell-based, mouse; settings: 1 μM, TNFα 100 ng/mL, 72 hours
Excerpt: Figure 3 LD4172 sensitizes B16F10 cells to TNFα-mediated apoptosis. A, Representative flow cytometry dot plots of apoptosis. In all four plots, viable cells are seen in the left lower quadrant (FITC-/PI-), early apoptotic cells in the right lower quadrant (FITC+/PI-), and late apoptotic cells in the right upper quadrant (FITC+/PI+). B, Representative images of PI (red) and caspase 3/7 (Cas3/7+, green) staining of B16F10 cells. Cell death assessed by PI uptake using Cytation 5 imager. C, Western blots for the expression of cleaved caspase3, cleaved caspase7, and cleaved PARP in B16F10 cells. D, Quantification of extracellular ATP level. Western blots for the expression of HMGB1 and calreticulin in B16F10 cells. E, Immunofluorescence staining of HMGB1 in B16F10 cells. B16F10 cells were treated in the presence or absence of TNFα (100 ng/mL), Z-VAD-FMK (25 μM), LD4172 (1 μM), and/or T2I (1 μM) as indicated for 72 hours. Data are representative of three independent experiments. Error bars represent SD.
Apoptosis quantification was conducted utilizing a FITC-conjugated Annexin V/PI assay kit (556547, BD Biosciences) and analyzed through flow cytometry. Briefly, 2×10^5 of B16F10 cells were seeded onto six-well plates and treated as specified for 72 hours at 37°C. Treated and untreated cells were harvested, washed with PBS, and resuspended in 100 μl of binding buffer. […]

B16F10 tumors = test: B16F10 syngeneic tumor model with anti-PD1; assay type: in vivo; settings: B16F10 tumors; 20 mg/kg i.p. daily plus anti-PD1 100 μg i.p. every three days
Procedure: Figure 4 LD4172 synergizes with Anti-PD1 to inhibit tumor growth. A, Plasma concentrations of LD4172 in C57BL/6J mice administered 1 mg/kg intravenously (i.v.) or 10 mg/kg intraperitoneally (i.p.) (n=4). B, Representative immunoblots of RIPK1 in different tissues of C57BL/6J mice treated with LD4172 (n=3–4). C, Densitometric analysis of RIPK1 protein levels in different tissues (n=3 or 4). D, Representative immunoblots of RIPK1 levels of B16F10 cells transduced with gRNA specific for RIPK1 or non-targetable control (sgNC). E, B16F10-RIPK1-KO tumors sensitized to anti-PD1 treatment: 3×10^5 B16F10 cells transduced with gRNA specific for RIPK1 or non-targetable control (sgNC) were inoculated into C57BL/6J mice. After seven days, mice with measurable tumors (~100 mm3) were randomly treated with or without anti-PD1 in vivo (100 μg per dose, i.p., every three days, n=8). F, Tumor growth curve of mice with B16F10 tumors treated with LD4172 and/or anti-PD1 (n=8). C57B6/J mice were subcutaneously inoculated with 3×10^5 B16F10 tumor cells. After seven days (tumor size ~ 100 mm3), mice were treated every three days with anti- PD1 (100 μg per dose, i.p.), daily with LD4172 (20 mg/kg, i.p.), a combination of LD4172 and anti-PD1 (same dose as their individual doses), or their corresponding vehicle control. G, Kaplan-Meier survival curve for all experimental groups. H, Final tumor weight (g) from F after 22d of treatment (n=8). I, Representative images of B16F10 tumors collected at the end of treatment. J, Mouse body weight (n=8). K, Tumor growth curve of mice with B16F10 tumors treated with T2I and/or anti-PD1 (n=8). The experimental conditions and treatment regimens were the same as F except using the RIPK1 kinase inhibitor T2I (20 mg/kg, i.p.) to replace LD4172. Representative data from at least three independent experiments are shown. Data are expressed as the mean ± SEM. * p<0.05; ** p<0.01; *** p<0.001, **** p<0.0001, respectively. ns, indicates no statistical significance.
To establish a syngeneic mouse model, 3× 10^5 B16F10 cells resuspended in PBS were mixed 1:1 by volume with Matrigel (354262, Corning) and subcutaneously injected into the right flank of seven-week-old wild-type female C57BL/6J mice on day 0. Treatments were started on day 7 when the tumor volume reached approximately 100 mm^3. Antibodies were administered in 100μL volumes and injected intraperitoneally every three days for the following: anti-PD1 (100 μg, BE0146, BioXcell) and anti-CD8 (500 μg, BE0004, BioXcell). The RIPK1 degrader LD4172 and RIPK1 kinase inhibitor T2I were delivered in 200 μL of vehicle solution (30% PEG400, 5% Tween-80, 5% DMSO) once daily (20 mg/kg, i.p. injection). […] Tumors were measured every three days beginning on day 7 after the challenge until death. […]

Q: Which results are given for `CCn1cc(-c2ccc3c(c2)CCN3C(=O)Cc2cccc(OC(F)(F)F)c2)c2c(N)ncnc21` [T2I, reference compound]?
A: cell death / apoptosis in combination with TNFα (B16F10 cells): did not trigger TNFα-mediated apoptosis; tumor response in combination with anti-PD1 (B16F10 tumors): failed to sensitize B16F10 tumors to anti-PD1 treatment
